B1: LPS free Ova: EndoGrade Ovalbumin, Hyglos GmbH (protein, UniProt P01012 2-386, looked up)
Ovalbumin: GSIGAASMEFCFDVFKELKVHHANENIFYCPIAIMSALAMVYLGAKDSTRTQINKVVRFDKLPGFGDSIEAQCGTSVNVHSSLRDILNQITKPNDVYSFSLASRLYAEERYPILPEYLQCVKELYRGGLEPINFQTAADQARELINSWVESQTNGIIRNVLQPSSVDSQTAMVLVNAIVFKGLWEKAFKDEDTQAMPFRVTEQESKPVQMMYQIGLFRVASMASEKMKILELPFASGTMSMLVLLPDEVSGLEQLESIINFEKLTEWTSSNVMEERKIKVYLPRMKMEEKYNLTSVLMAMGITDVFSSSANLSGISSAESLKISQAVHAAHAEINEAGREVVGSAEAGVDAASVSEEFRADHPFLFCIKHIATNAVLFFGRCVSP
modifications: endotoxin-free
notes: EndoGrade Ovalbumin, Hyglos GmbH

Experiments:
[1] = system: Ova-specific CD8+ T cells; test: Proliferation of CFSE-stained T cells co-cultured with treated DC: CD8+ T cells; assay type: cell-based, OT1-tg mice; conditions: DC incubated with 10 μg/mL for 24 h, co-culture 4 days
Procedure: (§1) T cell-mediated immune responses were investigated 96 h by measuring the proliferation of cells recovered from spleens after restimulation with BPPcysOva^mPEG. Non-Ag restimulated spleen cells were chosen as negative controls (FIG. 3). […] Taking into consideration that the BPPcysOva^mPEG has a promising effect on DC activation and maturation, next the capacity of these APC to stimulate the proliferation of antigen-specific CD8+ and CD4+ T cells was evaluated. Concentrations below 10^−8 M of BPPcysOva^mPEG were still able to induce an antigen specific proliferation of CD4+ T cells shown by the reduction of CFSE+ cells (FIGS. 4A-E).
(§2) FIG. 4: Proliferation of CD8+, CD4+ and regulatory T cells. DC were generated from bone marrow of C57BL/6 mice and incubated with 10 μg/mL of B) Ova C) Ova peptides, D) Ova in the presence of BPPcysMPEG and E) BPPcysOva^mPEG alone (A) Control) for 24 h. The following day, CD4+ T cells from spleens of OT2-tg animals or CD8+ T cells of OT1-tg animals were isolated. After staining with CFSE, CD8+, CD4+ T cells were co-cultured with adjuvant-treated DCs for 4 days. The decrease of CFSE-FITC expression due to cell division of CD8+ or CD4+ T cells were analysed by flow cytometric analysis. One representative experiment out of two is shown.

[2] = system: Ova-specific CD4+CD25+Foxp3+ regulatory T cells; test: Proliferation of T cells co-cultured with treated DC: regulatory T cells; assay type: cell-based, OTII mice; conditions: DC incubated with 10 μg/mL for 24 h, co-culture 4 days
Procedure: as §1, §2

spleen cells = test: Proliferation of spleen cells of immunized mice after in vitro restimulation with Ova, day 42 (Example 5); assay type: in vivo; conditions: i.n., restimulation with Ova
Procedure: Experimental protocol: Spleens were removed and pooled for analysis of cellular immune responses. Cells were grown in RPMI 1640 supplemented with 10% fetal calf serum, 100 U/ml of penicillin, 50 μg/ml of streptomycin, 5×10^−5 M 2-mercaptoethanol and 1 mM L-glutamine (GIBCO BRL, Karlsruhe, Germany) and maintained at 37° C. in a humidified 5% CO2 atmosphere. Lymph node and spleen cell suspensions were adjusted to 5×10^6 cells/ml in complete medium, cells were seeded with 100 μl per well in a flat-bottomed 96-well microtiter plate (Nunc) and plates were incubated for 4 days in the presence of different concentrations of Ova. Each concentration was tested in triplicates. During the final 18 h of culture, 1 μCi of [^3H]thymidine (Amersham International, Freiburg, Germany) was added to each well. Cells were then harvested on paper filters (Filtermat A; Wallac, Freiburg, Germany) by using a cell harvester (Inotech, Wohlen, Switzerland), and the amount of incorporated [^3H]thymidine into the DNA of proliferating cells was determined by a β-scintillation counter (Wallac 1450, Micro-Trilux). The results are expressed as the arithmetic mean of [^3H]thymidine uptake in cpm.
T cell-mediated immune responses were investigated at day 42 by measuring the proliferation of cells recovered from spleens after in vitro restimulation with Ova. […]

| Molecule | stimulation of proliferation of Ova-specific CD8+ T cells by treated DC [1] | stimulation of proliferation of Ova-specific CD4+CD25+Foxp3+ regulatory T cells by treated DC [2] | proliferative response of spleen cells, i.n. immunization (spleen cells) |
| --- | --- | --- | --- |
| CD4 peptide: Ova CD4 epitope peptide alone (KISQAVHAAHAEINEAG; UniProt P01012 323-339, looked up, fragment) [reference compound] | weak stimulation | very efficiently |  |
| B1 |  |  | failed to induce detectable cellular proliferation |

From patent US10918733B2, “Lipopeptide- and lipoprotein-conjugates and its use” (HELMHOLTZ-ZENTRUM FUER INFEKTIONSFORSCHUNG GMBH, priority 2009, dated 2021)
